# The supplement of paper PMC10307832
# What was measured:
# Experiment in all cases: relative viability (nuclei count vs DMSO), 5 days (fraction); higher = more cells survive
# RO-3306 + Crizotinib = compound: C1=CC2=C(C=CC(=C2)C=C3C(=O)NC(=NCC4=CC=CS4)S3)N=C1 [RO-3306] + C[C@@H](Oc1cc(-c2cnn(C3CCNCC3)c2)cnc1N)c1c(Cl)ccc(F)c1Cl [Crizotinib] (partner 1 µM)
# In short: (§1)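 Relative viability equals treated-well nuclei counts divided by vehicle-well nuclei counts. Counts came from 4× images of lung cancer cell lines grown in 1536-well plates for 5 days after pin-tool dosing on the day after seeding. Dosing used one drug alone or a fixed anchor-drug dose plus five library-drug doses (not always all listed) in √10 steps, and values are medians of duplicate plates.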
# RO-3306 + Foretinib = compound: C1=CC2=C(C=CC(=C2)C=C3C(=O)NC(=NCC4=CC=CS4)S3)N=C1 [RO-3306] + COc1cc2c(Oc3ccc(NC(=O)C4(C(=O)Nc5ccc(F)cc5)CC4)cc3F)ccnc2cc1OCCCN1CCOCC1 [Foretinib] (partner 0.25 µM)
# In short: as §1
# RO-3306 + Trametinib = compound: C1=CC2=C(C=CC(=C2)C=C3C(=O)NC(=NCC4=CC=CS4)S3)N=C1 [RO-3306] + CC(=O)Nc1cccc(-n2c(=O)n(C3CC3)c(=O)c3c(Nc4ccc(I)cc4F)n(C)c(=O)c(C)c32)c1 [Trametinib] (partner 0.02 µM)
# In short: as §1
# RO-3306 + Decitabine = compound: C1=CC2=C(C=CC(=C2)C=C3C(=O)NC(=NCC4=CC=CS4)S3)N=C1 [RO-3306] + Nc1ncn([C@H]2C[C@H](O)[C@@H](CO)O2)c(=O)n1 [Decitabine] (partner 2 µM)
# In short: as §1
Cell Line,relative viability (RO-3306 + Crizotinib; first compound 0.01 µM),relative viability (RO-3306 + Crizotinib; first compound 0.1 µM),relative viability (RO-3306 + Crizotinib; first compound 0.3162 µM),relative viability (RO-3306 + Crizotinib; first compound 1 µM),relative viability (RO-3306 + Foretinib; first compound 0.01 µM),relative viability (RO-3306 + Foretinib; first compound 0.03162 µM),relative viability (RO-3306 + Foretinib; first compound 0.1 µM),relative viability (RO-3306 + Foretinib; first compound 0.3162 µM),relative viability (RO-3306 + Foretinib; first compound 1 µM),relative viability (RO-3306 + Trametinib; first compound 0.01 µM),relative viability (RO-3306 + Trametinib; first compound 0.03162 µM),relative viability (RO-3306 + Trametinib; first compound 0.1 µM),relative viability (RO-3306 + Trametinib; first compound 0.3162 µM),relative viability (RO-3306 + Trametinib; first compound 1 µM),relative viability (RO-3306 + Decitabine; first compound 0.01 µM),relative viability (RO-3306 + Decitabine; first compound 0.03162 µM),relative viability (RO-3306 + Decitabine; first compound 0.1 µM),relative viability (RO-3306 + Decitabine; first compound 0.3162 µM),relative viability (RO-3306 + Decitabine; first compound 1 µM),relative viability (RO-3306 + Crizotinib; first compound 0.03162 µM)
COR-L23,0.45,0.748,0.694,0.74,0.958,0.941,0.966,1.13,1.08,0.656,0.374,0.558,0.532,0.656,0.342,0.405,0.487,0.446,0.394,–
NCI-H596,0.968,0.998,1.07,1.08,0.716,0.797,0.818,0.872,0.77,0.798,0.773,0.722,0.793,0.58,0.985,0.805,0.882,1.02,0.891,0.896
BEN,0.834,0.86,0.906,0.813,0.513,0.684,0.664,0.673,0.747,1,0.895,1.02,1.13,1.13,0.645,0.69,0.723,0.725,0.824,0.768
HCC-15,1.01,0.848,0.925,0.763,1.19,0.954,0.963,1.01,0.93,0.414,0.359,0.374,0.36,0.391,0.606,0.547,0.563,0.662,0.552,0.707
NCI-H460,0.958,1.02,0.9,0.436,1,0.894,1.08,1.08,1.08,0.162,0.115,0.139,0.223,0.128,0.52,0.44,0.509,0.645,0.462,–
EMC-BAC-2,0.768,0.767,0.735,0.702,0.977,0.892,0.976,1.03,1.05,0.917,0.83,0.902,0.889,0.84,1.1,0.915,0.963,0.954,0.972,0.723
NCI-H520,0.877,0.772,0.825,0.748,0.843,0.663,0.854,0.694,0.839,0.896,0.629,0.569,0.714,0.756,0.568,0.542,0.469,0.501,0.554,0.423
NCI-H1993,–,0.895,0.867,0.817,0.924,0.794,0.789,0.727,0.809,0.506,0.546,0.6,0.533,0.439,0.616,0.493,0.486,0.575,0.657,0.803
